# Target: PD-1/PD-L1 (Homo sapiens (Human), UniProt Q9NZQ7)
# Assay: PD-1/PD-L1 Homogeneous Time-Resolved Fluorescence (HTRF) Binding Assay
# Conditions: recombinant human PD-1 (3 nM) and PD-L1 (10 nM), 25° C., PBS pH 7.4
# Method in brief: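 Fc-tagged human PD-1 (25-167, 3 nM) and His-tagged PD-L1 (19-238, 10 nM) preincubated with inhibitor 40 min in PBS pH 7.4, 0.05% Tween-20, 0.1% BSA, 1% DMSO, 25 °C. Binding detected by HTRF (Eu anti-IgG/APC anti-His, 665/620 nm) after 60 min; IC50 from percent control activity.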
# Chain of PD-1/PD-L1 (Q9NZQ7 19-238): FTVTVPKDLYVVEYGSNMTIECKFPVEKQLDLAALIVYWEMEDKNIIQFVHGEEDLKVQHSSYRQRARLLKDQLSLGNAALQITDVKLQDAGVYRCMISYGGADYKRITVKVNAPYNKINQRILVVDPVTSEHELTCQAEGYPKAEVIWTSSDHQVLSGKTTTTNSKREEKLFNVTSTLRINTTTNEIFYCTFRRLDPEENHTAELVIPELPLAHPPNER
row,Compound,IC50
1,"Cc1c(Nc2nccc3cc(CN4CC[C@@H](O)C4)cnc23)cccc1-c1cccc(-c2nc3cc(CNCC(C)(C)C(=O)O)cc(C#N)c3o2)c1C [Example 86, (R)-3-((7-cyano-2-(3′-(3-((3-hydroxypyrrolidin-1-yl)methyl)-1,7-naphthyridin-8-ylamino)-2,2′-dimethylbiphenyl-3-yl)benzo[d]oxazol-5-yl)methylamino)-2,2-dimethylpropanoic acid]",≤ 10 nM
2,"Cc1c(-c2nc3cc(CN4CC[C@@H](C(=O)O)C4)cc(C#N)c3o2)cccc1-c1cccc(-c2nc3c(s2)CN(CC2CC2)CC3)c1C [Example 64, (R)-1-((7-cyano-2-(3′-(5-(cyclopropylmethyl)-4,5,6,7-tetrahydrothiazolo[5,4-c]pyridin-2-yl)-2,2′-dimethyl-[1,1′-biphenyl]-3-yl)benzo[d]oxazol-5-yl)methyl)pyrrolidine-3-carboxylic acid]",≤ 10 nM
3,"Cc1c(-c2nc3c(o2)CN(C(=O)CN2CC[C@H](O)C2)C3)cccc1-c1cccc(-c2nc3cc(CN4CC[C@@H](C(=O)O)C4)cc(C#N)c3o2)c1C [Example 128, (R)-1-((7-cyano-2-(3′-(5-(2-((S)-3-hydroxypyrrolidin-1-yl)acetyl)-5,6-dihydro-4H-pyrrolo[3,4-d]oxazol-2-yl)-2,2′-dimethyl-[1,1′-biphenyl]-3-yl)benzo[d]oxazol-5-yl)methyl)pyrrolidine-3-carboxylic acid]",≤ 10 nM
4,"Cc1c(-c2nc3cc(CN4CC[C@H](C(=O)O)C4)cc(C#N)c3o2)cccc1-c1cccc(NC(=O)c2nc3c(n2C)CCN(C)C3)c1F [Example 51, (S)-1-((7-cyano-2-(3′-(1,5-dimethyl-4,5,6,7-tetrahydro-1H-imidazo[4,5-c]pyridine-2-carboxamido)-2′-fluoro-2-methylbiphenyl-3-yl)benzo[d]oxazol-5-yl)methyl)pyrrolidine-3-carboxylic acid]",≤ 10 nM
5,"Cc1c(-c2nc3cc(CN4CC[C@@H](C(=O)O)C4)cc(C#N)c3o2)cccc1-c1cccc(NC(=O)c2nc3c(n2C)CCN(C)C3)c1Cl [Example 53, (R)-1-((2-(2′-chloro-3′-(1,5-dimethyl-4,5,6,7-tetrahydro-1H-imidazo[4,5-c]pyridine-2-carboxamido)-2-methylbiphenyl-3-yl)-7-cyanobenzo[d]oxazol-5-yl)methyl)pyrrolidine-3-carboxylic acid]",≤ 10 nM
6,"Cc1c(Nc2nccc3cc(C4CCCN4)cnc23)cccc1-c1cccc(-c2nc3cc(CN4CC[C@@H](C(=O)O)C4)cc(C#N)c3o2)c1C (single isomer, unassigned) [Example 98]",≤ 10 nM
7,"Cc1c(-c2nc3cc(CN4CC(C(=O)O)C4)cc(C#N)c3o2)cccc1-c1cccc(-c2nc3c(s2)CN(CCO)CC3)c1C [Example 68, 1-((7-cyano-2-(3′-(5-(2-hydroxyethyl)-4,5,6,7-tetrahydrothiazolo[5,4-c]pyridin-2-yl)-2,2′-dimethyl-[1,1′-biphenyl]-3-yl)benzo[d]oxazol-5-yl)methyl)azetidine-3-carboxylic acid]",≤ 10 nM
8,"Cc1c(Nc2nccc3cc(CN4CC[C@@H](O)C4)cnc23)cccc1-c1cccc(-c2nc3cc(CN4CC[C@@H](C(=O)O)C4)cc(C#N)c3o2)c1C [Example 24, (R)-1-((7-cyano-2-(3′-(3-(((R)-3-hydroxypyrrolidin-1-yl)methyl)-1,7-naphthyridin-8-ylamino)-2,2′-dimethylbiphenyl-3-yl)benzo[d]oxazol-5-yl)methyl)pyrrolidine-3-carboxylic acid]",≤ 10 nM
9,"Cc1c(-c2nc3cc(CN[C@H]4CC[C@H](C(=O)O)CC4)cc(C#N)c3o2)cccc1-c1cccc(NC(=O)c2nc3c(n2C)CCN(C)C3)c1Cl [Example 91, (1R,4R)-4-((2-(2′-chloro-3′-(1,5-dimethyl-4,5,6,7-tetrahydro-1H-imidazo[4,5-c]pyridine-2-carboxamido)-2-methylbiphenyl-3-yl)-7-cyanobenzo[d]oxazol-5-yl)methylamino)cyclohexanecarboxylic acid]",≤ 10 nM
10,"Cc1c(-c2nc3cc(CN4CC[C@@H](C(=O)O)C4)cc(Cl)c3o2)cccc1-c1cccc(-c2nc3c(s2)CNCC3)c1C [Example 70, (R)-1-((7-chloro-2-(2,2′-dimethyl-3′-(4,5,6,7-tetrahydrothiazolo[5,4-c]pyridin-2-yl)-[1,1′-biphenyl]-3-yl)benzo[d]oxazol-5-yl)methyl)pyrrolidine-3-carboxylic acid]",≤ 10 nM
11,"Cc1c(-c2nc3cc(CN4CC[C@@H](C(=O)O)C4)cc(Cl)c3o2)cccc1-c1cccc(-c2nc3c(s2)CN(C(C)CO)CC3)c1C (stereo partly drawn) [Example 62, (3R)-1-((7-chloro-2-(3′-(5-(1-hydroxypropan-2-yl)-4,5,6,7-tetrahydrothiazolo[5,4-c]pyridin-2-yl)-2,2′-dimethyl-[1,1′-biphenyl]-3-yl)benzo[d]oxazol-5-yl)methyl)pyrrolidine-3-carboxylic acid]",≤ 10 nM
12,"Cc1c(-c2nc3cc(CN4CC[C@@H](C(=O)NCCO)C4)cc(C#N)c3o2)cccc1-c1cccc(-n2cc3c(n2)CN(C(C)C)CC3)c1Cl [Example 104, (R)-1-((2-(2′-chloro-3′-(6-isopropyl-4,5,6,7-tetrahydro-2H-pyrazolo[3,4-c]pyridin-2-yl)-2-methylbiphenyl-3-yl)-7-cyanobenzo[d]oxazol-5-yl)methyl)-N-(2-hydroxyethyl)pyrrolidine-3-carboxamide]",≤ 10 nM
13,"Cc1c(Nc2nccc3nccnc23)cccc1-c1cccc(-c2nc3cc(CN4CC[C@@H](C(=O)O)C4)cc(C#N)c3o2)c1C [Example 12, (R)-1-((7-cyano-2-(2,2′-dimethyl-3′-(pyrido[4,3-b]pyrazin-5-ylamino)biphenyl-3-yl)benzo[d]oxazol-5-yl)methyl)pyrrolidine-3-carboxylic acid]",≤ 10 nM

# Continued, values first:
row,IC50,Compound
1,≤ 10 nM,"Cc1c(-c2nc3cc(CN4CC[C@@](C)(C(=O)O)C4)cc(C#N)c3o2)cccc1-c1cccc(-c2nc3c(s2)CN(C(=O)CN2CC(O)C2)C3)c1C [Example 227, (R)-1-((7-cyano-2-(3′-(5-(2-(3-hydroxyazetidin-1-yl)acetyl)-5,6-dihydro-4H-pyrrolo[3,4-d]thiazol-2-yl)-2,2′-dimethylbiphenyl-3-yl)benzo[d]oxazol-5-yl)methyl)-3-methylpyrrolidine-3-carboxylic acid]"
2,≤ 10 nM,"Cc1c(-c2nc3cc(CN4CC[C@@](C)(C(=O)O)C4)cc(C#N)c3o2)cccc1-c1cccc(-c2nc3c(s2)CN(C(=O)CN(C)CCO)C3)c1C [Example 224, (R)-1-((7-cyano-2-(3′-(5-(2-((2-hydroxyethyl) (methyl)amino)acetyl)-5,6-dihydro-4H-pyrrolo[3,4-d]thiazol-2-yl)-2,2′-dimethylbiphenyl-3-yl)benzo[d]oxazol-5-yl)methyl)-3-methylpyrrolidine-3-carboxylic acid]"
3,≤ 10 nM,"Cc1c(Nc2nccc3cc(CN4CC[C@@H](O)C4)cnc23)cccc1-c1cccc(-c2nc3cc(CN[C@@H]4CC[C@H](C(=O)O)C4)cc(C#N)c3o2)c1C [Example 170, (1S,3R)-3-((7-cyano-2-(3′-(3-(((R)-3-hydroxypyrrolidin-1-yl)methyl)-1,7-naphthyridin-8-ylamino)-2,2′-dimethylbiphenyl-3-yl)benzo[d]oxazol-5-yl)methylamino)cyclopentanecarboxylic acid]"
4,≤ 10 nM,"Cc1c(Nc2nccc3cc(CN[C@@H](C)CO)cnc23)cccc1-c1cccc(-c2nc3cc(CN4CC[C@@](C)(C(=O)O)C4)cc(C#N)c3o2)c1C [Example 195, (R)-1-((7-cyano-2-(3′-(3-(((S)-1-hydroxypropan-2-ylamino)methyl)-1,7-naphthyridin-8-ylamino)-2,2′-dimethylbiphenyl-3-yl)benzo[d]oxazol-5-yl)methyl)-3-methylpyrrolidine-3-carboxylic acid]"
5,≤ 10 nM,"Cc1c(-c2nc3cc(CN4CC5(CC(C(=O)O)C5)C4)cc(C#N)c3o2)cccc1-c1cccc(-c2nc3c(s2)CN(C(=O)CN(C)[C@H](C)CO)C3)c1C [Example 231, 2-((7-cyano-2-(3′-(5-(2-(((R)-1-hydroxypropan-2-yl)(methyl)amino)acetyl)-5,6-dihydro-4H-pyrrolo[3,4-d]thiazol-2-yl)-2,2′-dimethylbiphenyl-3-yl)benzo[d]oxazol-5-yl)methyl)-2-azaspiro[3.3]heptane-6-carboxylic acid]"
6,≤ 10 nM,"Cc1c(-c2nc3cc(CN4CCCC4)cc(C#N)c3o2)cccc1-c1cccc(NC(=O)c2nc3c(n2C)CCN(C[C@H]2CC[C@H](C(=O)O)CC2)C3)c1Cl [Example 271, trans-4-((2-(2-chloro-3′-(7-cyano-5-(pyrrolidin-1-ylmethyl)benzo[d]oxazol-2-yl)-2′-methylbiphenyl-3-ylcarbamoyl)-1-methyl-6,7-dihydro-1H-imidazo[4,5-c]pyridin-5(4H)-yl)methyl)cyclohexanecarboxylic acid]"
7,≤ 10 nM,"Cc1c(-c2nc3c(o2)CN(C(=O)CN2CCC(O)CC2)C3)cccc1-c1cccc(-c2nc3cc(CN4CC5CC4CC5C(=O)O)cc(C#N)c3o2)c1C (stereo not drawn) [Example 251, 2-((7-cyano-2-(3′-(5-(2-(4-hydroxypiperidin-1-yl)acetyl)-5,6-dihydro-4H-pyrrolo[3,4-d]oxazol-2-yl)-2,2′-dimethyl-[1,1′-biphenyl]-3-yl)benzo[d]oxazol-5-yl)methyl)-2-azabicyclo[2.2.1]heptane-5-carboxylic acid]"
8,≤ 10 nM,"Cc1c(-c2nc3cc(CN4CCC(C(=O)O)CC4)cc(C#N)c3o2)cccc1-c1cccc(NC(=O)c2nc3c(n2C)CCN(CCO)C3)c1Cl [Example 156, 1-((2-(2′-chloro-3′-(5-(2-hydroxyethyl)-1-methyl-4,5,6,7-tetrahydro-1H-imidazo[4,5-c]pyridine-2-carboxamido)-2-methylbiphenyl-3-yl)-7-cyanobenzo[d]oxazol-5-yl)methyl)piperidine-4-carboxylic acid]"

# Source: patent US10308644B2, “Heterocyclic compounds as immunomodulators” (Incyte Corporation, priority 2016, dated 2019)
